Measurements as given in patent US8791303B2, “Herbicides” (Syngenta Limited, priority 2009, dated 2014).

Key:
[1] = tested on: Echinochloa crus-galli (ECHCG); assay: Example A glasshouse herbicide test, post-emergence, ECHCG; assay type: in vivo; conditions: Echinochloa crus-galli, post-emergence, 312 h, Rate 250 g/ha, sprayed after 8 days cultivation, evaluated after 13 days, read-out: Post-Emergence Activity ECHCG (100=total damage to plant; 0=no damage to plant)
Method: (§1) Seeds of a variety of test species are sown in standard soil in pots. After cultivation for one day (pre-emergence) or after 8 days cultivation (post-emergence) under controlled conditions in a glasshouse (at 24/16° C., day/night; 14 hours light; 65% humidity), the plants are sprayed with an aqueous spray solution derived from the formulation of the technical active ingredient in acetone/water (50:50) solution containing 0.5% Tween 20 (polyoxyethelyene sorbitan monolaurate, CAS RN 9005-64-5).
(§2) The test plants are then grown in a glasshouse under controlled conditions in a glasshouse (at 24/16° C., day/night; 14 hours light; 65% humidity) and watered twice daily. After 13 days for pre and post-emergence, the test is evaluated (100=total damage to plant; 0=no damage to plant).
(§3) Lolium perenne (LOLPE), Alopecurus myosuroides (ALOMY), Echinochloa crus-galli (ECHCG), Avena fatua (AVEFA)

[2] = tested on: Alopecurus myosuroides (ALOMY); assay: Example A glasshouse herbicide test, pre-emergence, ALOMY; assay type: in vivo; conditions: Alopecurus myosuroides, pre-emergence, 312 h, Rate 250 g/ha, sprayed after cultivation for one day, evaluated after 13 days, read-out: Pre-Emergence Activity ALOMY (100=total damage to plant; 0=no damage to plant)
Method: as §1, §2, §3

[3] = tested on: Winter Wheat variety 'Hereward'; assay: Example B crop damage test, post-emergence, unsafened wheat; assay type: in vivo; conditions: Rate 250 g/ha; post-emergence spray after 8 days cultivation; no safener; evaluated after 13 days
Method: Seeds of the Winter Wheat variety ‘Hereward’ were sown in standard soil in pots. After 8 days cultivation under controlled conditions in a glasshouse (at 24/16° C., day/night; 14 hours light; 65% humidity), the plants were sprayed post-emergence with an aqueous spray solution derived from the formulation of the technical active ingredient in acetone/water (50:50) solution containing 0.5% Tween 20 (polyoxyethelyene sorbitan monolaurate, CAS RN 9005-64-5).
(§4) The test plants were then grown in a glasshouse under controlled conditions in a glasshouse (at 24/16° C., day/night; 14 hours light; 65% humidity) and watered twice daily. After 13 days for pre and post-emergence, the test was evaluated (100=total damage to plant; 0=no damage to plant).

Avena fatua (AVEFA) [4] = assay: Example A glasshouse herbicide test, post-emergence, AVEFA; assay type: in vivo; conditions: Avena fatua, post-emergence, 312 h, Rate 250 g/ha, sprayed after 8 days cultivation, evaluated after 13 days, read-out: Post-Emergence Activity AVEFA (100=total damage to plant; 0=no damage to plant)
Method: as §1, §2, §3

[5] = tested on: Alopecurus myosuroides (ALOMY); assay: Example A glasshouse herbicide test, post-emergence, ALOMY; assay type: in vivo; conditions: Alopecurus myosuroides, post-emergence, 312 h, Rate 250 g/ha, sprayed after 8 days cultivation, evaluated after 13 days, read-out: Post-Emergence Activity ALOMY (100=total damage to plant; 0=no damage to plant)
Method: as §1, §2, §3

Lolium perenne (LOLPE) [6] = assay: Example A glasshouse herbicide test, pre-emergence, LOLPE; assay type: in vivo; conditions: Lolium perenne, pre-emergence, 312 h, Rate 250 g/ha, sprayed after cultivation for one day, evaluated after 13 days, read-out: Pre-Emergence Activity LOLPE (100=total damage to plant; 0=no damage to plant)
Method: as §1, §2, §3

[7] = tested on: Winter Wheat variety 'Hereward'; assay: Example B crop damage test, post-emergence, wheat seed treated with safener cloquintocet mexyl; assay type: in vivo; conditions: Rate 250 g/ha; post-emergence spray 8 days after sowing; seed treated with cloquintocet mexyl 0.5 g/kg dry seed; evaluated after 13 days
Method: Seeds of the Winter Wheat variety ‘Hereward’ were seed treated with a wettable powder formulation of the cereal herbicide safener, cloquintocet mexyl, at a rate of 0.5 grams per kilogram of dry seed prior to the initiation of glasshouse testing. One seed was sown per 1.5 inch plastic pot into a sandy loam soil at a depth of 1 cm, 8 days prior to application of the test compounds and was watered and grown under controlled conditions in a glasshouse (at 24/16° C., day/night; 14 hours light; 65% humidity). The plants were sprayed post-emergence with an aqueous spray solution derived from the formulation of the technical active ingredient in acetone/water (50:50) solution containing 0.5% Tween 20 (polyoxyethelyene sorbitan monolaurate, CAS RN 9005-64-5).
as §4

Avena fatua (AVEFA) [8] = assay: Example A glasshouse herbicide test, pre-emergence, AVEFA; assay type: in vivo; conditions: Avena fatua, pre-emergence, 312 h, Rate 250 g/ha, sprayed after cultivation for one day, evaluated after 13 days, read-out: Pre-Emergence Activity AVEFA (100=total damage to plant; 0=no damage to plant)
Method: as §1, §2, §3

Lolium perenne (LOLPE) [9] = assay: Example A glasshouse herbicide test, post-emergence, LOLPE; assay type: in vivo; conditions: Lolium perenne, post-emergence, 312 h, Rate 250 g/ha, sprayed after 8 days cultivation, evaluated after 13 days, read-out: Post-Emergence Activity LOLPE (100=total damage to plant; 0=no damage to plant)
Method: as §1, §2, §3

[10] = tested on: Echinochloa crus-galli (ECHCG); assay: Example A glasshouse herbicide test, pre-emergence, ECHCG; assay type: in vivo; conditions: Echinochloa crus-galli, pre-emergence, 312 h, Rate 250 g/ha, sprayed after cultivation for one day, evaluated after 13 days, read-out: Pre-Emergence Activity ECHCG (100=total damage to plant; 0=no damage to plant)
Method: as §1, §2, §3

Compound | pest or weed control at 250 g/ha [1] [%] | pest or weed control at 250 g/ha [2] [%] | Winter Wheat (Hereward) damage (100=total damage to plant; 0=no damage to plant) [3] | pest or weed control at 250 g/ha (Avena fatua (AVEFA) [4]) [%] | pest or weed control at 250 g/ha [5] [%] | pest or weed control at 250 g/ha (Lolium perenne (LOLPE) [6]) [%] | Winter Wheat (Hereward) + cloquintocet mexyl damage (100=total damage to plant; 0=no damage to plant) [7] | pest or weed control at 250 g/ha (Avena fatua (AVEFA) [8]) [%] | pest or weed control at 250 g/ha (Lolium perenne (LOLPE) [9]) [%] | pest or weed control at 250 g/ha [10] [%] | melting point [°C]
Cc1cc(C)c(C2=C(OC(=O)C(C)(C)C)C/C(=C\C3CCCCC3)C2=O)c(C)c1 [Compound B1] | 30 | 70 | 10 | 10 | 50 | 80 | 0 | 20 | 70 | 100 | –
Cc1cc(C)c(C2C(=O)CC(CC3CCCCC3)C2=O)c(C)c1 (stereo not shown) [Compound A2] | 90 | 70 | 70 | 80 | 70 | 100 | 10 | 70 | 100 | 90 | –
Cc1cccc(C)c1C1C(=O)CC(CC2CCCCC2)C1=O (stereo not shown) [Compound A10, 4-cyclohexylmethyl-2-(2,6-dimethyl-phenyl)-cyclopentane-1,3-dione] | 70 | 0 | 10 | 20 | 20 | 80 | 0 | 0 | 40 | 20 | –
Cc1cc(C)c(C2C(=O)CC(CC3CCC(=NO)CC3)C2=O)c(C)c1 (stereo not shown) [Compound A8] | 50 | 60 | 30 | 90 | 70 | 90 | 10 | 40 | 100 | 90 | –
Cc1cc(Br)cc(C)c1C1C(=O)C/C(=C\C2CCCCC2)C1=O (stereo not shown) [Compound A7] | 80 | 40 | 20 | 40 | 50 | 60 | 0 | 20 | 30 | 50 | –
Cc1cc(C)c(C2C(=O)CC(Cc3ccc(F)cc3)C2=O)c(C)c1 (stereo not shown) [Compound A12] | – | – | – | – | – | – | – | – | – | – | 183.1 to 183.2
Cc1cc(C)c(C2C(=O)CC(CC3CC(C)CCC3C)C2=O)c(C)c1 (stereo not shown) [Compound A6] | 80 | 50 | 10 | 60 | 80 | 100 | 0 | 50 | 80 | 90 | –
Cc1cc(C)c(C2C(=O)C/C(=C\C3CCCC4CCCCC34)C2=O)c(C)c1 (stereo not shown) [Compound A31] | 80 | 40 | 20 | 20 | 20 | 90 | 0 | 20 | 70 | 90 | –
Cc1cc(C)c(C2=C(OC(=O)C(C)(C)C)C(CC3CCC(=O)CC3)CC2=O)c(C)c1 (stereo not shown) [Compound B3] | 90 | 70 | 40 | 90 | 70 | 90 | 30 | 50 | 90 | 50 | –
Cc1cc(C)c(C2C(=O)CC(CC3CC3)C2=O)c(C)c1 (stereo not shown) [Compound A28, 4-Cyclopropylmethyl-2-(2,4,6-trimethyl-phenyl)-cyclopentane-1,3-dione] | 90 | 90 | 30 | 50 | 70 | 100 | 10 | 70 | 100 | 100 | –
Cc1cc(C)c(C2=C(OC(=O)C(C)(C)C)CC(CC3CCCCC3)C2=O)c(C)c1 (stereo not shown) [Compound B2] | 60 | 30 | 70 | 80 | 80 | 100 | 0 | 0 | 90 | 100 | –
Cc1cc(C)c(C2C(=O)C/C(=C\C3CCCCC3C)C2=O)c(C)c1 (stereo not shown) [Compound A26] | 70 | 90 | 40 | 50 | 60 | 100 | 20 | 90 | 90 | 100 | –
Cc1cc(C)c(C2C(=O)CC(CC3CCCCCC3)C2=O)c(C)c1 (stereo not shown) [Compound A35] | 80 | 50 | 20 | 20 | 50 | 30 | 0 | 50 | 80 | 100 | –
